Data from ChEMBL document CHEMBL1127219, “A convergent synthesis of 4-(2-benzothiazoyl)piperidines with antihistamic activity” (Bioorg Med Chem Lett, 1993).

How the values were obtained:
Cavia porcellus = organism: Cavia porcellus; test: Concentration required to antagonize the histamine induced contractile response of guinea pig ileum; assay type: functional; conditions: read-out: pA2 (converted)
[1] = Dose causing 50% death of the population when tested in mice; assay type: ADME; conditions: mouse, in vivo

| Compound | Kb (Cavia porcellus) [nM] | LD50 [1] [mg/kg] |
| --- | --- | --- |
| COc1ccc(CCN2CCC(C(=O)c3nc4ccccc4s3)CC2)cc1 | 0.501 | > 400 |
| COc1ccc(CCN2CCC(C(O)(c3ccccc3)c3nc4ccccc4s3)CC2)cc1 (centres undefined) | 39.8 |  |
| COc1ccc(OCCCN2CCC(C(=O)c3nc4ccccc4s3)CC2)cc1 | 5.01 | > 400 |
| COc1ccc(CCN2CCC(C(O)c3nc4ccccc4s3)CC2)cc1 (centres undefined) | 6.31 |  |
| C=C(c1nc2ccccc2s1)C1CCN(CCc2ccc(OC)cc2)CC1 | 1.58 |  |
| O=C(c1nc2ccccc2s1)C1CCN(CCc2ccccc2)CC1 | 15.8 | > 400 |
| COc1cccc(CN2CCC(C(=O)c3nc4ccccc4s3)CC2)c1 | 50.1 | 400 |
| COC(=O)CN1CCC(C(=O)c2nc3ccccc3s2)CC1 | ~100 | > 400 |
| COC(=O)c1ccc(OCCCN2CCC(C(=O)c3nc4ccccc4s3)CC2)cc1 | 2.51 | > 400 |
| CC(=O)Nc1ccc(OCCCN2CCC(C(=O)c3nc4ccccc4s3)CC2)cc1 | 7.94 | > 400 |
| O=C(c1nc2ccccc2s1)C1CCN(CCc2ccc(F)cc2)CC1 | 3.98 | > 400 |
